# Test results published in US20180291070A1, “PEPTIDES, AND USES THEREOF” (priority 2015, published 2018).
# Several values for one entry are separate records, joined by “and”; a condition that tells them apart may be missing. Identical values can stand only once.
# Columns and labels:
# [1] = system: Human Dermal Fibroblasts (HDF); experiment: BrdU Cell Proliferation Assay; type: cell-based; conditions: 5, 0.5 or 0.05 μg/ml synthetic peptide 24 h
# Protocol: BrDu is incorporated into newly synthesised DNA strands of actively proliferating cells. Following partial denaturation of double stranded DNA, Brdu is detected immunochemically allowing the assessment of the population of cells which are synthesizing DNA. Human Dermal Fibroblasts (HDF—Sigma 10605a) were seeded in a 96 well plate at 10,000 cells per well in DMEM containing 10% fetal calf serum (FCS), 1% Pen/strep, 1% L-glutamine and allowed to adhere for 24 h. Following the initial 24 h incubation the cells were incubated with 5 μg/ml, 0.5 μg/ml or 0.05 μg/ml synthetic peptide for 24 h respectively. After 18 h incubation with synthetic peptides 20 μl BrDu reagent was added to each well. At 24 h incubation the cell were fixed and the amount of […] was measured using the BrdU Cell Proliferation Assay, all steps were carried out according to the manufacturer's instructions. Results were calculated as a percentage of the untreated control. An increase in optical density reading indicates greatER incorporation of BrDu and increase cell proliferation.
# TNF-α = TNF-α secretion by LPS-stimulated THP-1 differentiated macrophages (Biolegend ELISA); type: cell-based, human; conditions: for TNF-α DECREASE: THP-1 cells, 100, 10 or 1 ng/ml synthetic peptide 24 h, then 10 ng/ml LPS 5 h, vs untreated control
# Protocol: TNF-α is secreted by macrophages in response to stimulation by endotoxins such as lipopolysaccharides (LPS). TNF-α is thought to be involved in systemic inflammation and dysregulation of TNF-α production is thought to be involved in many diseases. The Biolegend assay is a sandwich ELISA kit that is designed for the accurate quantitation of human TNF-α from cell culture supernatant, serum or plasma.
# THP-1 monocytes were seeded in a 96 well plate at 10,000 cells per well in RPMI containing 10% fetal calf serum (FCS), 1% Pen/strep, 1% L-glutamine, 100 nM PMA and allowed to differentiated for 72 h prior to experimentation.
# Following differentiation the cells were incubated with 100 ng/ml, 10 ng/ml or 1 ng/ml synthetic peptide for 24 h respectively.
# Following treatment the cells were stimulated with 10 ng/ml LPS for 5 h and the quantity of TNF-α in the supernatant determined using the Biolegend assay ELISA kit.
# Results were calculated as a percentage of the untreated control. An increase in optical density reading indicates greater quantity of TNF-α release into cell culture supernatant.
# All experiments were prepared in duplicate on three plates (6 wells/conditions). Significance was calculated using Students t-test (*p<0.05 compared to control, **p<0.01 compared to control, *** p<0.001 compared to control).
Substance,INCREASE IN PROLIFERATION [1],other results
83 (SYQDVYNVAESS) [compound 83],32%,
410 (TLFLPQYTDADFILVVLSGK) [compound 410],73%,
253 (SKKSLPSE) [compound 253],112%,
470 (PRYSNTPGMV) [compound 470],119%,
495 (SGFSTELLSEALGVSSQVAR) [compound 495],68%,
341 (RGDTIKLPAGTTSYLVNQDDEE) [compound 341],83%,TNF-α DECREASE (TNF-α): 21%
285 (VVIIPAGHPVA) [compound 285],81%,
482 (ASLQEQEQGQVQSR) [compound 482],113%,
505 (FLLAGNKRNPQAYR) [compound 505],118%,
497 (GLLLPHYTNGASLVY) [compound 497],58%,
463 (QYAAQLPSMCRVEPQQCSIFAAGQY) [compound 463],100%,
503 (QGDVIALPAGVAHW) [compound 503],125%,
480 (ASLQEQEQGQVQ) [compound 480],102%,
124 (FYNEGDAPVVAL) [compound 124],15%,
464 (TVFNGVLRPGQL) [compound 464],18%,
462 (QQQQPGMTRVR) [compound 462],15%,
454 (YYGEGSSEEGYYGEQQQQPGMTR) [compound 454],38%,
249 (VVIIPAGHPVAITASSNLNLLGFG) [compound 249],30%,
75 (IYVTDLNNGANQLDPRQRD) [compound 75],,TNF-α DECREASE (TNF-α): 11%
247 (LVDLVIPVNGPGKFEAFDLAK) [compound 247],28%,
252 (VIPVNGPGKF) [compound 252],111%,

Substance,INCREASE IN PROLIFERATION [1],other results
452 (YYGEQQQQPGMTR) [compound 452],76%,
346 (ARLSPGDVVIIPAGHPVA) [compound 346],,TNF-α DECREASE (TNF-α): 18%
76 (VTNLNSQNFPILNLVQMSAVK) [compound 76],,TNF-α DECREASE (TNF-α): 9%
365 (AGTSSVINNLPLDV) [compound 365],58%,
359 (GTSSVINNLPLDVVAATFNLQRNE) [compound 359],15%,
105 (LAGNKRNPQAYR) [compound 105],40%,TNF-α DECREASE (TNF-α): 9%
468 (ALVAKRLQGQNDQRGEI) [compound 468],82%,
339 (ASSNLNLLGF) [compound 339],,TNF-α DECREASE (TNF-α): 26%
330 (NKNQYLRGFS) [compound 330],18%,
467 (NGVLRPGQL) [compound 467],90%,
460 (GEGSSEEGYYGEQQQQPGMTR) [compound 460],38%,
73 (SIFRALPNDVLANAYRISREE) [compound 73],16%,
272 (PSYEKEEDEEEGQR) [compound 272],97%,
344 (ARLSPGDVVIIPAGHPVAIT) [compound 344],,TNF-α DECREASE (TNF-α): 20%
270 (HGEWRPSYEKQEDEEEK) [compound 270],47%,
256 (IPVNGPGKF) [compound 256],117%,
350 (ARLSPGDVVIIPAGHPVAITAS) [compound 350],,TNF-α DECREASE (TNF-α): 80%
144 (AGILEADR) [compound 144],,TNF-α DECREASE (TNF-α): 16%
257 (LPQHIDADL) [compound 257],118%,
499 (ALPTDVLANAYR) [compound 499],113%,
473 (FYNEGDAPVV) [compound 473],41%,

Substance,INCREASE IN PROLIFERATION [1],other results
349 (LSPGDVVIIPAGHPVAITASSNLNLLGFGINAENNER) [compound 349],,TNF-α DECREASE (TNF-α): 6%
146 (VFIDHPSFLEK) [compound 146],80%,
501 (DVLANAYR) [compound 501],43%,
504 (FGAFTPLQYKSY) [compound 504],119%,
471 (YSNTPGMVY) [compound 471],38%,
91 (TVFNGELR) [compound 91],,TNF-α DECREASE (TNF-α): 80%
84 (ISREEAQR) [compound 84],20%,
461 (YGEGSSEEGYYGEQQQQPGMTR) [compound 461],85%,
112 (GEELGAFTPR) [compound 112],15%,
496 (GAFTPLQYKSYQD) [compound 496],51% and 81%,
403 (HPVAVRASSNLNLLGFGINAE) [compound 403],51%,
320 (KRHGEWRPSYEKEEDEE) [compound 320],,TNF-α DECREASE (TNF-α): 13%
472 (LVPRYSNTPGM) [compound 472],77%,
455 (QQQQPGMTRV) [compound 455],47%,
353 (HGPVEMPYTLLYPSSK) [compound 353],,TNF-α DECREASE (TNF-α): 20%
479 (VEERSQNIFSGF) [compound 479],106%,
226 (KEDDEEEEQGEEEINK) [compound 226],30%,
352 (ARLSPGDVVIIPAGHPVAITA) [compound 352],,TNF-α DECREASE (TNF-α): 23%
457 (SYEESMPMPLEQGWSSSSSEY) [compound 457],114%,
121 (PNVNPWHNPRQGGF) [compound 121],48%,
351 (LSPGDVVIIPAGHPVAITASSNL) [compound 351],,TNF-α DECREASE (TNF-α): 18%

Substance,INCREASE IN PROLIFERATION [1],other results
345 (RGDTIKLPAGTTSYLVNQDDE) [compound 345],,TNF-α DECREASE (TNF-α): 23%
222 (DDEEEEQGEEEINK) [compound 222],110%,
477 (FYNEGDAPVVA) [compound 477],81%,
158 (NNQRNFLAGDEDNVISQIQRPVKE) [compound 158],21%,
92 (QVQVVNNNGKTVF) [compound 92],,TNF-α DECREASE (TNF-α): 13%
97 (GEIVRVER) [compound 97],26%,
98 (RGLSLLQPYASLQ) [compound 98],49%,
337 (NKNQYLRGFSKNILE) [compound 337],8%,
478 (EVEERSQNIF) [compound 478],76%,
181 (DLAIPVNRPGQLQS) [compound 181],33%,
453 (SYEESMPMPLEQGWSSSSSE) [compound 453],25%,
QSFLLSGNQ [E_1_788],,TNF-α secretion reduced vs. untreated cells (TNF-α; THP-1 differentiated macrophages treated 24 hrs. prior to LPS stimulation): 80%
474 (FYNEGDAPVVAL) [compound 474],121%,
74 (SIFRALPND) [compound 74],29%,
114 (SIEQHSGQNIFSGFNNELLSEALGVNALVAK) [compound 114],119%,
465 (TVFNGVLRPGQLL) [compound 465],96%,
248 (DNVISQIENPVKE) [compound 248],86%,
500 (DFLLAGNK) [compound 500],6%,
502 (GAFTPLQYK) [compound 502],68%,
